Experimental data as given in ChEMBL document CHEMBL1133950, “Synthesis and biological evaluation of clitocine analogues as adenosine kinase inhibitors” (Bioorg Med Chem Lett, 2001).

Biological target: Adenosine kinase (Rattus norvegicus, UniProt Q64640)
Assay: In vitro inhibition of Adenosine kinase of rat brain cytosol.

Adenosine kinase, sequence (Q64640 whole entry): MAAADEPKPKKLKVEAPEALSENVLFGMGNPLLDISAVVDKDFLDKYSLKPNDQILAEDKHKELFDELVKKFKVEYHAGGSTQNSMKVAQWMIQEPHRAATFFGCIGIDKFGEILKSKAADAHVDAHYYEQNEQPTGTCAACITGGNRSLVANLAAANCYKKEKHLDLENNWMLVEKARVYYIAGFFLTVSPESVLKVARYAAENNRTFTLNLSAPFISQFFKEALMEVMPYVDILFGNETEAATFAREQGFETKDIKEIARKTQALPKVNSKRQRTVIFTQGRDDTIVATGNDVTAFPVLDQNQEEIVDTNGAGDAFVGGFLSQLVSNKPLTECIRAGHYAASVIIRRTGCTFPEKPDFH

Row | Structure (SMILES) | IC50
1 | Nc1ncnc(N[C@@H]2O[C@H](CO)[C@@H](O)[C@H]2O)c1C1=NCCO1 | 4 µM
2 | C[C@H]1O[C@@H](Nc2ncnc(N)c2[N+](=O)[O-])[C@H](O)[C@@H]1O | 4 µM
3 | COC(=O)c1c(N)ncnc1N[C@@H]1O[C@H](C)[C@@H](O)[C@H]1O | 6.1 µM
4 | COC(=O)c1c(N)ncnc1N[C@@H]1O[C@H](CO)[C@@H](O)[C@H]1O | 10 µM
5 | Nc1ncnc(N[C@@H]2O[C@H](CBr)[C@@H](O)[C@H]2O)c1[N+](=O)[O-] | > 10 µM
6 | Nc1ncnc(N[C@@H]2O[C@H](CO)[C@@H](O)[C@H]2O)c1C(=O)NCCO | > 10 µM
7 | O=[N+]([O-])c1c(Nc2ccccc2)ncnc1N[C@@H]1O[C@H](CO)[C@@H](O)[C@H]1O | > 10 µM
8 | COC(=O)c1cncnc1N[C@@H]1O[C@H](CN)[C@@H](O)[C@H]1O | 0.004 µM
9 | Nc1ncnc(N[C@@H]2O[C@H](CO)[C@@H](O)[C@H]2O)c1S(=O)(=O)c1ccccc1 | > 10 µM
10 | COC(=O)c1c(N)ncnc1N[C@@H]1O[C@H](CN)[C@@H](O)[C@H]1O | 0.002 µM
11 | COC(=O)c1cncnc1N[C@@H]1O[C@H](CO)[C@@H](O)[C@H]1O | 0.6 µM
12 | NC[C@H]1O[C@@H](Nc2ncnc(N)c2[N+](=O)[O-])[C@H](O)[C@@H]1O | 0.035 µM
13 | COC(=O)c1c(Cl)ncnc1N[C@@H]1O[C@H](CO)[C@@H](O)[C@H]1O | > 10 µM
14 | Nc1ncnc(N[C@@H]2O[C@H](CO)[C@@H](O)[C@H]2O)c1[S+]([O-])c1ccccc1 (some centres undefined) | > 10 µM
